Experimental data reported in PubChem BioAssay AID2060329 (Molecular Pharmacology Branch, DTP, NCI, 2025).
“And” between values parts separate entries of the source, which are not always exact repeats. Identical values can stand only once.

Tested on: MCF7 multi-cell spheroids with HUVEC/MSC, viability
Test: Anticancer human tumor MCF7 cell line growth inhibition [IpAb];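 note: spheroids exposed to agents for seven days before readout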
Details: for viability, T/C: stronger effect = lower value
Method in brief: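 Combinations with ipatasertib or abemaciclib were tested on tumour spheroids holding HUVEC (25%) and MSC (15%) alongside 60% malignant cells. Top concentration was at or near clinical Cmax (10 microM if undefined), descending in half-log steps.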

**Q.** With `Cn1cnc2c(F)c(Nc3ccc(Br)cc3Cl)c(C(=O)NOCCO)cc21` + CCN1CCN(Cc2ccc(Nc3ncc(F)c(-c4cc(F)c5nc(C)n(C(C)C)c5c4)n3)nc2)CC1 as the compound, how does the IC50 (curve of first compound, second compound 0.01 µM) read?
**A.** The IC50 was > 3 µM.

**Q.** And the IC50 (curve of first compound, second compound 0.0316 µM)?
**A.** Its IC50 is > 3 µM.

**Q.** What about the IC50 (curve of first compound, second compound 0.1 µM) of the same compound?
**A.** The IC50 was > 3 µM.

**Q.** What about the IC50 (curve of first compound, second compound 0.316 µM) of the same compound?
**A.** The IC50 was > 3 µM.

**Q.** What about the IC50 (curve of first compound, second compound 1 µM) of the same compound?
**A.** The IC50 was > 3 µM.

**Q.** What about the viability, T/C (second compound 0.01 µM, first compound 0.00949 µM) of the same compound?
**A.** The viability, T/C was 104%.

**Q.** What about the viability, T/C (second compound 0.01 µM, first compound 0.03 µM) of the same compound?
**A.** Its viability, T/C is 121%.

**Q.** And the viability, T/C (second compound 0.01 µM, first compound 0.0949 µM)?
**A.** Its viability, T/C is 103%.

**Q.** And the viability, T/C (second compound 0.01 µM, first compound 0.3 µM)?
**A.** Its viability, T/C is 113%.

**Q.** And the viability, T/C (second compound 0.01 µM, first compound 0.949 µM)?
**A.** The viability, T/C was 125%.

**Q.** And the viability, T/C (second compound 0.01 µM, first compound 3 µM)?
**A.** Its viability, T/C is 100%.

**Q.** And the viability, T/C (second compound 0.0316 µM, first compound 0.00949 µM)?
**A.** The viability, T/C was 94.4%.

**Q.** What about the viability, T/C (second compound 0.0316 µM, first compound 0.03 µM) of the same compound?
**A.** Its viability, T/C is 113%.

**Q.** And the viability, T/C (second compound 0.0316 µM, first compound 0.0949 µM)?
**A.** Its viability, T/C is 109%.

**Q.** And the viability, T/C (second compound 0.0316 µM, first compound 0.3 µM)?
**A.** The viability, T/C was 116%.

**Q.** What about the viability, T/C (second compound 0.0316 µM, first compound 0.949 µM) of the same compound?
**A.** Its viability, T/C is 119%.

**Q.** And the viability, T/C (second compound 0.0316 µM, first compound 3 µM)?
**A.** The viability, T/C was 99%.

**Q.** And the viability, T/C (second compound 0.1 µM, first compound 0.00949 µM)?
**A.** Its viability, T/C is 130%.

**Q.** And the viability, T/C (second compound 0.1 µM, first compound 0.03 µM)?
**A.** Its viability, T/C is 120%.

**Q.** What about the viability, T/C (second compound 0.1 µM, first compound 0.0949 µM) of the same compound?
**A.** Its viability, T/C is 117%.

**Q.** And the viability, T/C (second compound 0.1 µM, first compound 0.3 µM)?
**A.** The viability, T/C was 127%.

**Q.** And the viability, T/C (second compound 0.1 µM, first compound 0.949 µM)?
**A.** The viability, T/C was 127%.

**Q.** What about the viability, T/C (second compound 0.1 µM, first compound 3 µM) of the same compound?
**A.** The viability, T/C was 113%.

**Q.** And the viability, T/C (second compound 0.316 µM, first compound 0.00949 µM)?
**A.** The viability, T/C was 119%.

**Q.** And the viability, T/C (second compound 0.316 µM, first compound 0.03 µM)?
**A.** Its viability, T/C is 132%.

**Q.** What about the viability, T/C (second compound 0.316 µM, first compound 0.0949 µM) of the same compound?
**A.** The viability, T/C was 132%.

**Q.** What about the viability, T/C (second compound 0.316 µM, first compound 0.3 µM) of the same compound?
**A.** The viability, T/C was 126%.

**Q.** And the viability, T/C (second compound 0.316 µM, first compound 0.949 µM)?
**A.** The viability, T/C was 120%.

**Q.** And the viability, T/C (second compound 0.316 µM, first compound 3 µM)?
**A.** The viability, T/C was 108%.

**Q.** And the viability, T/C (second compound 1 µM, first compound 0.00949 µM)?
**A.** Its viability, T/C is 107%.

**Q.** And the viability, T/C (second compound 1 µM, first compound 0.03 µM)?
**A.** Its viability, T/C is 110%.

**Q.** And the viability, T/C (second compound 1 µM, first compound 0.0949 µM)?
**A.** The viability, T/C was 107%.

**Q.** What about the viability, T/C (second compound 1 µM, first compound 0.3 µM) of the same compound?
**A.** Its viability, T/C is 95.5%.

**Q.** What about the viability, T/C (second compound 1 µM, first compound 0.949 µM) of the same compound?
**A.** Its viability, T/C is 88.5%.

**Q.** What about the viability, T/C (second compound 1 µM, first compound 3 µM) of the same compound?
**A.** The viability, T/C was 88.5%.

**Q.** Which results are given for `Cc1nc(NC(=O)N2CCCC2C(N)=O)sc1-c1ccnc(C(C)(C)C(F)(F)F)c1` (stereo not given)?
**A.** viability, T/C (compound 0.0316 µM): 74.8% and 93.7%; viability, T/C (compound 0.1 µM): 64.7% and 93.4%; viability, T/C (compound 0.316 µM): 65.9% and 78.8%; viability, T/C (compound 1 µM): 47.6% and 70.3%; viability, T/C (compound 3.16 µM): 48.1% and 63.4%; viability, T/C (compound 10 µM): 36.2% and 43%; IC50 (curve of compound): 1.54 µM and 6.66 µM

**Q.** How did the viability, T/C (compound 0.01 µM) turn out when `CCN1CCN(Cc2ccc(Nc3ncc(F)c(-c4cc(F)c5nc(C)n(C(C)C)c5c4)n3)nc2)CC1` was run?
**A.** Its viability, T/C is 97.5% [middle of 13 runs].

**Q.** What about the viability, T/C (compound 0.0316 µM) of the same compound?
**A.** The viability, T/C was 101% [middle of 13 runs].

**Q.** And the IC50 (compound alone, run of 06/01/2021)?
**A.** The IC50 was > 1 µM.
